The subject of one assay is LtP. Kind of assay: Uncoupling of LtP respiration in presence of oligomycin (OxoPlates). The format is cell-based, Leishmania tarentolae. As to conditions: 38 µM Oligo; for uncoupling effect (recovery of O2 consumption in the presence of Oligo): 0.31–5.0 µM CCCP or 12.5–200.0 µM other compounds. The protocol:
The uncoupling experiments using OxoPlates were carried out in analogy to oxygen consumption measurements of LtP. An oligomycin (Oligo) premix in aBHI was prepared leading to a final concentration of 38 µM oligomycin (Oligo). Each well of the second row was filled with 50 µL of aBHI. From the third row on, each well was filled with 50 µL of the Oligo premix and to the fourth row additional 50 µL Oligo premix was added. The respective amounts of the substances (Ac, AQ, AcEP1117, AcEP1118, AcEP1129, AcEP1130, CCCP) were added and a serial 1:2 dilution was performed. Measurements were carried out as described above. The oxygen consumption rates were normalized to the wells that contained only LtP. For each concentration measurements were done in triplicates.

In assay [1] the test system is Leishmania donovani promastigotes (LdP). Kind of assay: MTS-PMS viability assay in Leishmania donovani promastigotes. Type of assay: cell-based. The note with it: endpoint at 48 h, 5 × 10^5 LdP/mL, read-out: IC50 (µM) Mean ± SD LdP. The procedure:
Leishmania donovani (PS14) were originated from the splenic aspirate of a patient with visceral leishmaniasis. Typing of the species was done by a restriction fragment length polymorphism (RFLP) method. The parasites were cultivated in M199 medium supplemented with 20% FBS, penicillin G (50,000 IU/L), streptomycin (50 mg/L), and hemin (5 µM) at 24 °C for transformation. After 1–2 weeks, the successfully transformed parasites (Leishmania donovani promastigotes, LdP) were transferred to M199 medium supplemented with 10% FBS, penicillin G (50,000 IU/L), streptomycin (50 mg/L), and hemin (5 µM) in 12.5 cm^2 flasks (HiMedia, Mumbai, India) at 24 °C. The cells were sub-cultured every 48–72 h, 1 × 10^6 cells/mL being the inoculum.
The antileishmanial activity of anthracene endoperoxides (AcEPs) in LdP was established in promastigotes, and cell viability was measured using the modified MTS-PMS assay. Briefly, log phase promastigotes (1 × 10^5 cells/200 µL of Schneider‘s medium/well) were incubated with AcEPs (0–100 µM) for 48 h, and afterwards, parasite viability was measured. For this, MTS (2.0 mg/mL) and PMS (0.92 mg/mL) were added in a ratio of 5:1 (20 µL/well), and plates were incubated for 3 h at 37 °C; resultant absorbance was measured at 490 nm in a spectrofluorimeter (Merilyzer EIaQuant, Meril Life Sciences, Gujarat, India). The mean percent viability was calculated as follows: mean specific absorbance of treated parasites/mean specific absorbance of untreated parasites × 100. Results were expressed as IC50 values. These were enumerated by graphical extrapolation using Graph pad Prism software (version 5).
(Tetrazolium assays rely on reduction of a dye to a coloured formazan, in cell work by metabolically active cells.)

Where two headings read alike, the source gives them in different places.

Take `O=C1c2ccccc2C(=O)c2ccccc21` [AQ, anthraquinone, reference compound]: the “uncoupling effect (recovery of O2 consumption in the presence of Oligo)” value (shortened to “uncoupling effect”) in the assay on LtP was “Neither Ac nor AQ displayed an uncoupling effect”.
In the case of `c1ccc2cc3ccccc3cc2c1` [Ac, anthracene], the “uncoupling effect” value with LtP is “Neither Ac nor AQ displayed an uncoupling effect”.
As usually defined, the IC50 is the concentration needed to halve the response being measured. With `c1ccc2c(c1)C1OOC2c2ccccc21` [AcEP1117, 9,10-dihydro-9,10-epidioxidoanthracene], the “uncoupling effect” value in the assay on LtP is reported as “no strong uncoupling was observed except for AcEP1117 at 200 µM”. The half-maximal inhibitory concentration (IC50) in assay [1] (Leishmania donovani, 48 h) stood at 2.65 ± 0.34 µM.
With `CC12OOC(C)(c3ccccc31)c1ccccc12` [AcEP1118, 9,10-dimethyl-9,10-dihydro-9,10-epidioxidoanthracene], the IC50 in assay [1] (Leishmania donovani, 48 h) came to 4.1 ± 0.94 µM.
As to `CC12OOC(c3ccccc31)c1ccccc12` [AcEP1129, 9-methyl-9,10-dihydro-9,10-epidioxidoanthracene], the “concentration at which regain of oxygen consumption (uncoupling) is visible” value in the assay on LtP (declines at higher concentrations) worked out at 25 µM. For the same molecule, in the assay with LtP, the “uncoupling effect” value is reported as “a trend for uncoupling was observed at lower concentrations”. Moreover, the IC50 in assay [1] (Leishmania donovani, 48 h) came to 4.21 ± 0.36 µM.
`CCc1ccc2c(c1)C1OOC2c2ccccc21` (centres unmarked) [AcEP1130, 2-ethyl-9,10-dihydro-9,10-epidioxidoanthracene]: the 50% inhibitory concentration (IC50) in assay [1] (Leishmania donovani, 48 h) was found to be 39.5 ± 3.48 µM.
Regarding `N=C(N)c1ccc(OCCCCCOc2ccc(C(=N)N)cc2)cc1` [Pen, pentamidine, reference compound], the IC50 was under 1 µM in assay [1] (Leishmania donovani, 48 h) and 0.55 ± 0.11 µM in assay [1].

The record behind these values is PMC6100073, “Activation of Anthracene Endoperoxides in Leishmania and Impairment of Mitochondrial Functions” (Molecules : A Journal of Synthetic Chemistry and Natural …, 2018).
